SMILES strings stand for the structures.

In test [1] the target is T1, human orexin-2 receptor (hOX2R) (Homo sapiens, UniProt O43614).
T1 construct: expressed in transfected cells; host or cells: Chinese hamster ovary (CHO) cells, grown under G418 selection
T1 sequence (O43614 1-444): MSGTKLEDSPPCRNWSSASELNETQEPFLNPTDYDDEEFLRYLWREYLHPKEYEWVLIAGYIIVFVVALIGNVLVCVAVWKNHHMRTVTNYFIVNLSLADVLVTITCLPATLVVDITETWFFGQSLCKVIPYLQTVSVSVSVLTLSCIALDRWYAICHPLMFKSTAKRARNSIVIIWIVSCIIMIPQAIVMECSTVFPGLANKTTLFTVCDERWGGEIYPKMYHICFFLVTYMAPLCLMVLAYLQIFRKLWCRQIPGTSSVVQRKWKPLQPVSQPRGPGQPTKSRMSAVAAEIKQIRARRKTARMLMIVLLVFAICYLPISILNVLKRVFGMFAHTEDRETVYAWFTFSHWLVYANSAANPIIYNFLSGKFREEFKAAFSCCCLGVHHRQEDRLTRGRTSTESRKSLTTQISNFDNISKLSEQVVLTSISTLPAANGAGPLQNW
The experiment in a line: FLIPR Ca2+ Flux Assay, CHO cells expressing hOX2R. The following applies: agonist 70 pM Ala-6,12 orexin-A. Format: cell-based.

Test [2] deals with T2, human orexin-1 receptor (hOX1R) (Homo sapiens, UniProt O43613).
T2 construct: expressed in transfected cells; host or cells: Chinese hamster ovary (CHO) cells, grown under G418 selection
T2 sequence (O43613 1-425): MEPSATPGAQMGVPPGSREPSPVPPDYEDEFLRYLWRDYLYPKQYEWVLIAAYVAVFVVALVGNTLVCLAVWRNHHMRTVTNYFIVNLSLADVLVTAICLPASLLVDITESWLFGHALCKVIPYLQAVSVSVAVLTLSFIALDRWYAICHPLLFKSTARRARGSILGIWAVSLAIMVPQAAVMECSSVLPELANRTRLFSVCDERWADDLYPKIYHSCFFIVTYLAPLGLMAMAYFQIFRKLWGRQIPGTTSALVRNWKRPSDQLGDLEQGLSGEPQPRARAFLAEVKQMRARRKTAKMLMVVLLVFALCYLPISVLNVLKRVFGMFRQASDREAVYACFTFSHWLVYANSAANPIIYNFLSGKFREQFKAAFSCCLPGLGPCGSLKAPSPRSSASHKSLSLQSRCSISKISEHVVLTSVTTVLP
The experiment in a line: FLIPR Ca2+ Flux Assay, CHO cells expressing hOX1R. The format is cell-based. The following applies: agonist 70 pM Ala-6,12 orexin-A.

Broadly, the IC50 is the concentration needed to halve the response being measured. The low end stands for inhibition by little substance, the high end for a need for much substance. Turning to `CCc1ccnc(O[C@@H]2CC[C@@H](C)N(C(=O)c3ccccc3-n3nccn3)C2)c1CO` [Example 40, (4-Ethyl-2-{[(3R,6R)-6-methyl-1-{[2-(2H-1,2,3-triazol-2-yl)phenyl]carbonyl}piperidin-3-yl]oxy}pyridin-3-yl)methanol], the IC50 worked out at 17 nM in test [1] and 103 nM in test [2].
The corresponding values for `C[C@@H]1CC[C@@H](Oc2ncccc2C(C)(C)O)CN1C(=O)c1ccccc1C1CC1` [Example 13, 2-[2-({(3R,6R)-1-[(2-cyclopropylphenyl)carbonyl]-6-methylpiperidin-3-yl}oxy)pyridin-3-yl]propan-2-ol] are 34 nM and 94 nM.
The corresponding values for `C[C@@H]1CC[C@@H](Oc2ncccc2C(C)(C)O)CN1C(=O)c1sccc1-n1nccn1` [Example 11, 2-(2-{[(3R,6R)-6-methyl-1-{[3-(2H-1,2,3-triazol-2-yl)thiophen-2-yl]carbonyl}piperidin-3-yl]oxy}pyridin-3-yl)propan-2-ol] are 41 nM and 148 nM.
The corresponding values for `C[C@@H]1CC[C@@H](Oc2ncccc2CO)CN1C(=O)c1ccccc1-n1nccn1` [Example 39, (2-{[(3R,6R)-6-Methyl-1-{[2-(2H-1,2,3-triazol-2-yl)phenyl]carbonyl}piperidin-3-yl]oxy}pyridin-3-yl)methanol] are 18 nM and 925 nM.
On to `CC[C@@H](O)c1cccnc1O[C@@H]1CC[C@@H](C)N(C(=O)c2ccccc2-n2nccn2)C1` [Example 33, (1R)-1-(2-{[(3R,6R)-6-methyl-1-{[2-(2H-1,2,3-triazol-2-yl)phenyl]carbonyl}piperidin-3-yl]oxy}pyridin-3-yl) propan-1-ol], for which the IC50 in test [1] turned out to be 33 nM; in test [2], 46 nM.
For `C[C@@H]1CC[C@@H](Oc2ncccc2[C@H](O)C(F)(F)F)CN1C(=O)c1ccccc1-n1nccn1` [Example 36, (1S)-2,2,2-Trifluoro-1-(2-{[(3R,6R)-6-methyl-1-{[2-(2H-1,2,3-triazol-2-yl)phenyl]carbonyl}piperidin-3-yl]oxy}pyridin-3-yl)ethanol], in that order: 24 nM and 904 nM.
The corresponding values for `C[C@@H]1CC[C@@H](Oc2ncccc2C(C)(C)O)CN1C(=O)c1ccccc1-n1nccn1` [Example 1, 2-(2-{[(3R,6R)-6-Methyl-1-{[2-(2H-1,2,3-triazol-2-yl)phenyl]carbonyl}piperidin-3-yl]oxy}pyridin-3-yl)propan-2-ol] are 30 nM and 44.5 nM.
The corresponding values for `CC(O)c1c(C(F)(F)F)ccnc1O[C@@H]1CC[C@@H](C)N(C(=O)c2ccccc2-n2nccn2)C1` (stereo partly drawn) [Example 38, 1-[2-{[(3R,6R)-6-Methyl-1-{[2-(2H-1,2,3-triazol-2-yl)phenyl]carbonyl}piperidin-3-yl]oxy}-4-(trifluoromethyl)pyridin-3-yl]ethanol] are 110 nM and 188 nM.
For `Cc1ccc(C(C)(C)O)c(O[C@@H]2CC[C@@H](C)N(C(=O)c3ccccc3-n3nccn3)C2)n1` [Example 25, 2-(6-Methyl-2-{[(3R,6R)-6-methyl-1-{[2-(2H-1,2,3-triazol-2-yl)phenyl]carbonyl}piperidin-3-yl]oxy}pyridin-3-yl)propan-2-ol], the IC50 in test [1] worked out at 77 nM; in test [2] it was 55 nM.

Source of the values: US20160102073A1, “2-HYDROXYMETHYL-SUBSTITUTED OREXIN RECEPTOR ANTAGONISTS” (MERCK SHARP & DOHME CORP., priority 2013, published 2016).
